Assay results published in patent US7833991B2, “Amine compound and use thereof” (Kureha Corporation, priority 2002, dated 2010).

Legend:
[1] = test system: HIV-1IIIB infected MT-4 cells; experiment: Antiviral activity in HIV-1IIIB infected MT-4 cells, MTT method (Test Examples 1 and 5); type: cell-based; conditions: Human immunodeficiency virus 1, MT4; as in Test Example 1; Table 5; read-out: HIV Activity EC50
Protocol: Immediately after infection, HIV-1IIIB infected MT-4 cells (3.0×10^4/well, MOI (Multiplicity of infection): 0.01) were added to a 96-well microtiter plate together with the test compounds having different concentrations. The cells were cultured in a carbon dioxide incubator at 37° C. for 5 days, and the number of living cells was measured in accordance with the MTT (tetrazolium) method (Pawels, et al., Journal of Virology Method, 20, 309-321 ([…])). The antiviral activity is represented by the concentration required for inhibition of cell disorder due to HIV by 50% (EC50: 50% Effective Concentration) (μM), and the results are shown in Table 2.
(§1) Compounds of the present invention having various substituted and unsubstituted heterocyclic rings for the substituent A2 of formula (1) were tested for antiviral (anti-HIV) activity as in Test Example 1 and for CXCR4 activity as in Test Example 2. The compounds, various substituents of the compounds, antiviral activity represented by the concentration required for inhibition of all disorder due to HIV injection by 50% (EC50: 50% Effective Concentration, μM), and CXCR4 activity calculated as a rate of inhibition of the binding between radioactive ligands and CXCR4 receptors by a test material (a binding-inhibition % at 0.1 μM) are shown in Table 5: […]

CXCR4 = target: T1, CXCR4 (Homo sapiens, UniProt P61073); experiment: Inhibition of 125I-SDF-1α binding to receptors CXCR4 on MT-4 cells (Test Examples 2 and 5); conditions: binding-inhibition % at 0.1 μM, as in Test Example 2; Table 5; read-out: CXCR4 Activity % at 0.1 μM
T1 construct: endogenous in cells; host or cells: MT-4 cells
Protocol: MT-4 cells (5×10^6/0.2 ml/well) were cultured on a 24-well microtiter plate. After the cells were incubated for 24 hours at 37° C. in a carbon dioxide gas incubator, a culture medium was replaced with a buffer solution (0.1% BSA-containing RPMI-1640). Together with a ligand ^125I-SDF-1α, (specific activity: 2,200 Ci/mmol; available from Daiichi Pure Chemicals Co., Ltd. (Tokyo)), test materials with various concentrations were subjected to a binding reaction for 2 hours under ice-cooling. […] Then, a rate of inhibition of the binding between radio-active ligands and receptors CXCR4 by a test material was calculated (a binding-inhibition % at 0.1 μM).
as §1

T1 sequence (P61073 whole entry): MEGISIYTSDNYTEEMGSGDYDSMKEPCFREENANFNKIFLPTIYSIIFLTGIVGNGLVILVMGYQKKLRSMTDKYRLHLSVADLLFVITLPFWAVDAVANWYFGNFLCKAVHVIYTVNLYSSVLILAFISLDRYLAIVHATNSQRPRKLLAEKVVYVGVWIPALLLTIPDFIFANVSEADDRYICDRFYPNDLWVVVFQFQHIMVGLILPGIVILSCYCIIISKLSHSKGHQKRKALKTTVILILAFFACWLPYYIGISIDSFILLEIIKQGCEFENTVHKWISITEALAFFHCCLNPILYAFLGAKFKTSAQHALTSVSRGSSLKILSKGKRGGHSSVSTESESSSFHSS

Structure (SMILES): O=C(Nc1ccc(CNC2CCCCC2)cc1)c1ccc(CN(Cc2ncc[nH]2)Cc2ncc[nH]2)cc1 [Compound No. 89, 4-{[bis(1H-imidazol-2-ylmethyl)-amino]-methyl}-N-(4-cyclohexylaminomethylphenyl)-benzamide]
- EC50 [1]: 9 nM

Structure (SMILES): CCCN(CCC)Cc1cccc(NC(=O)c2ccc(CN(Cc3ncc[nH]3)Cc3ncc[nH]3)cc2)c1 [Compound No. 33, 4-{[bis(1H-imidazol-2-ylmethyl)-amino]-methyl}-N-(3-dipropylaminomethylphenyl)-benzamide]
- inhibition at 0.1 µM (CXCR4): 97.8%
- EC50 [1]: 46 nM

Structure (SMILES): CCCN(CCC)Cc1ccc(NC(=O)c2ccc(CN(Cc3ccc(C)cn3)Cc3ncc[nH]3)cc2)cc1 [Compound No. 56, N-(4-dipropylaminomethylphenyl)-4-{[(1H-imidazol-2-ylmethyl)-(5-methylpyridin-2-ylmethyl)-amino]-methyl}-benzamide]
- inhibition at 0.1 µM (CXCR4): 98.8%
- EC50 [1]: 3 nM

Structure (SMILES): CCCN(CCC)Cc1ccc(NC(=O)c2ccc(CN(Cc3ncc[nH]3)Cc3nccc4ccccc34)cc2)cc1 [Compound No. 63, N-(4-dipropylaminomethylphenyl)-4-{[(1H-imidazol-2-ylmethyl)-(isoquinolin-1-ylmethyl)-amino]-methyl}-benzamide]
- inhibition at 0.1 µM (CXCR4): 14.7%
- EC50 [1]: 81 nM

Structure (SMILES): CCCN(CCC)Cc1ccc(NC(=O)c2ccc(CN(Cc3ccncc3)Cc3ncc[nH]3)cc2)cc1 [Compound No. 58, N-(4-dipropylaminomethylphenyl)-4-{[(1H-imidazol-2-ylmethyl)-(pyridin-4-ylmethyl)-amino]-methyl}-benzamide]
- inhibition at 0.1 µM (CXCR4): 18.6%
- EC50 [1]: 97 nM

Structure (SMILES): CCCN(CCC)Cc1ccc(NC(=O)c2ccc(CN(Cc3ccc(C)cn3)Cc3nccn3C)cc2)cc1 [Compound No. 76, N-(4-dipropylaminomethylphenyl)-4-{[(1-methyl-1H-imidazol-2-ylmethyl)-(5-methylpyridin-2-ylmethyl)-amino]-methyl}-benzamide]
- EC50 [1]: 7 nM

Structure (SMILES): CCCN(CCC)Cc1ccc(NC(=O)c2ccc(CN(Cc3nc[nH]n3)Cc3nccn3C)cc2)cc1 [Compound No. 123, N-(4-di-n-propylaminomethyl-phenyl)-4-{[(1-methyl-imidazol-2-ylmethyl)-(1H-[1,2,4]-triazol-3-ylmethyl)-amino]-methyl}-benzamide]
- EC50 [1]: 68 nM

Structure (SMILES): CCCN(CCC)Cc1ccc(NC(=O)c2ccc(CN(Cc3ncc[nH]3)Cc3nccn3CCO)cc2)cc1 [Compound No. 94, N-(4-dipropylaminomethylphenyl)-4-({[1-(2-hydroxyethyl)-1H-imidazol-2-ylmethyl]-(1H-imidazol-2-ylmethyl)-amino}-methyl)-benzamide]
- inhibition at 0.1 µM (CXCR4): 100%
- EC50 [1]: 3 nM

Structure (SMILES): CCCN(CCC)Cc1ccc(NC(=O)c2ccc(CN(Cc3ncc[nH]3)Cc3ncc(C)cc3C)cc2)cc1 [Compound No. 101, 4-{[(3,5-dimethyl-pyridin-2-ylmethyl)-(1H-imidazol-2-ylmethyl)-amino]-methyl}-N-(4-dipropylaminomethyl-phenyl)-benzamide]
- inhibition at 0.1 µM (CXCR4): 99.1%
- EC50 [1]: 5 nM

Structure (SMILES): CCCN(CCC)Cc1ccc(NC(=O)c2ccc(CN(Cc3nccn3C)Cc3nccn3C)cc2)cc1 [Compound No. 41, 4-{[bis(1-methyl-1H-imidazol-2-ylmethyl)-amino]-methyl}-N-(4-dipropylaminomethylphenyl)-benzamide]
- EC50 [1]: 3 nM

Structure (SMILES): CCCN(CCC)Cc1ccc(NC(=O)c2ccc(CN(Cc3cc4ccccc4cn3)Cc3ncc[nH]3)cc2)cc1 [Compound No. 47, N-(4-dipropylaminomethylphenyl)-4-{[(1H-imidazol-2-ylmethyl)-(isoquinolin-3-ylmethyl)-amino]-methyl}-benzamide]
- inhibition at 0.1 µM (CXCR4): 98.8%
- EC50 [1]: 20 nM

Structure (SMILES): CCCN(CCC)Cc1ccc(NC(=O)c2ccc(CN(Cc3ccc4cccc(O)c4n3)Cc3ncc[nH]3)cc2)cc1 [Compound No. 72, N-(4-dipropylaminomethylphenyl)-4-{[(8-hydroxyquinolin-2-ylmethyl)-(1H-imidazol-2-ylmethyl)-amino]-methyl}-benzamide]
- inhibition at 0.1 µM (CXCR4): 100%
- EC50 [1]: 4 nM

Structure (SMILES): CCCN(CCC)Cc1ccc(NC(=O)c2ccc(CN(Cc3ncc[nH]3)Cc3ncccc3OCC)cc2)cc1 [Compound No. 59, N-(4-dipropylaminomethylphenyl)-4-{[(1H-imidazol-2-ylmethyl)-(3-ethoxypyridin-2-ylmethyl)-amino]-methyl}-benzamide]
- inhibition at 0.1 µM (CXCR4): 98.2%
- EC50 [1]: 24 nM

Structure (SMILES): CCCN(CCC)Cc1ccc(NC(=O)c2ccc(CN(Cc3ccccn3)Cc3ncc[nH]3)cc2)cc1 [Compound No. 48, N-(4-dipropylaminomethylphenyl)-4-{[(1H-imidazol-2-ylmethyl)-(pyridin-2-ylmethyl)-amino]-methyl}-benzamide]
- inhibition at 0.1 µM (CXCR4): 97.7%
- EC50 [1]: 22 nM

Structure (SMILES): Cn1ccnc1CN(Cc1ccc(C(=O)Nc2ccc(CNC3CCCCC3)cc2)cc1)Cc1ncc[nH]1 [Compound No. 88, N-(4-cyclohexylaminomethylphenyl)-4-{[(1H-imidazol-2-ylmethyl)-(1-methyl-1H-imidazol-2-ylmethyl)-amino]-methyl}-benzamide]
- inhibition at 0.1 µM (CXCR4): 99%
- EC50 [1]: 5 nM

Structure (SMILES): CCCN(CCC)c1ccc(NC(=O)c2ccc(CN(Cc3ncc[nH]3)Cc3ncc[nH]3)cc2)cc1 [Compound No. 15, 4-{[bis(1H-imidazol-2-ylmethyl)-amino]-methyl}-N-(4-dipropylaminophenyl)-benzamide]
- inhibition at 0.1 µM (CXCR4): 46.9%

Structure (SMILES): CCCN(CCC)Cc1ccc(NC(=O)c2ccc(CN(Cc3nc[nH]n3)Cc3ncc[nH]3)cc2)cc1 [Compound No. 114, N-(4-di-n-propylaminomethyl-phenyl)-4-{[(1H-imidazol-2-ylmethyl)-(1H-[1,2,4]-triazol-3-ylmethyl)-amino]-methyl}-benzamide]
- inhibition at 0.1 µM (CXCR4): 96.4%
- EC50 [1]: 89 nM

Structure (SMILES): CCCN(CCC)Cc1ccc(NC(=O)c2ccc(CN(Cc3ncc[nH]3)Cc3ncccc3C)cc2)cc1 [Compound No. 53, N-(4-dipropylaminomethylphenyl)-4-{[(1H-imidazol-2-ylmethyl)-(3-methylpyridin-2-ylmethyl)-amino]-methyl}-benzamide]
- inhibition at 0.1 µM (CXCR4): 97.7%
- EC50 [1]: 9 nM

Structure (SMILES): CCCN(CCC)Cc1ccc(NC(=O)c2ccc(CN(Cc3ncc[nH]3)Cc3nccn3CCC)cc2)cc1 [Compound No. 92, N-(4-dipropylaminomethylphenyl)-4-{[(1H-imidazol-2-ylmethyl)-(1-propyl-1H-imidazol-2-ylmethyl)-amino]-methyl}-benzamide]
- EC50 [1]: 48 nM

Structure (SMILES): CCCN(CCC)Cc1ccc(NC(=O)c2ccc(CN(Cc3ncc[nH]3)Cc3ncc(C)c(OC)c3C)cc2)cc1 [Compound No. 64, N-(4-dipropylaminomethylphenyl)-4-{[(1H-imidazol-2-ylmethyl)-(4-methoxy-3,5-dimethylpyridin-2-ylmethyl)-amino]-methyl}-benzamide]
- inhibition at 0.1 µM (CXCR4): 100%
- EC50 [1]: 18 nM

Structure (SMILES): CCCN(CCC)Cc1ccc(NC(=O)c2ccc(CN(Cc3ncc[nH]3)Cc3ncc[nH]3)c3ccccc23)cc1 [Compound No. 36, 4-{[bis(1H-imidazol-2-ylmethyl)-amino]-methyl}-naphtalene-1-carboxylic acid (4-dipropylaminomethylphenyl)-amide]
- inhibition at 0.1 µM (CXCR4): 89.6%
- EC50 [1]: 501 nM

Structure (SMILES): CCCN(CCC)Cc1ccc(NC(=O)c2ccc(CN(Cc3cc(C)ccn3)Cc3ncc[nH]3)cc2)cc1 [Compound No. 78, N-(4-dipropylaminomethylphenyl)-4-{[N-(1H-imidazol-2-ylmethyl)-(4-methylpyridin-2-ylmethyl)-amino]-methyl}-benzamide]
- EC50 [1]: 19 nM

Structure (SMILES): CCCN(CCC)Cc1ccc(NC(=O)c2ccc(CN(Cc3ncc[nH]3)Cc3nccn3CC)cc2)cc1 [Compound No. 91, N-(4-dipropylaminomethylphenyl)-4-{[(1-ethyl-1H-imidazol-2-ylmethyl)-(1H-imidazol-2-ylmethyl)-amino]-methyl}-benzamide]
- EC50 [1]: 15 nM

Structure (SMILES): CCCN(CCC)Cc1ccc(NC(=O)c2ccc(CN(Cc3ccc4ccccc4n3)Cc3ncc[nH]3)cc2)cc1 [Compound No. 55, N-(4-dipropylaminomethylphenyl)-4-{[(1H-imidazol-2-ylmethyl)-(quinolin-2-ylmethyl)-amino]-methyl}-benzamide]
- inhibition at 0.1 µM (CXCR4): 21%
- EC50 [1]: 635 nM

Structure (SMILES): CCCN(CCC)Cc1ccc(NC(=O)c2ccc(CN(Cc3ccc(CC)cn3)Cc3ncc[nH]3)cc2)cc1 [Compound No. 102, N-(4-dipropylaminomethyl-phenyl)-4-{[(5-ethyl-pyridin-2-ylmethyl)-(1H-imidazol-2-ylmethyl)-amino]-methyl}-benzamide]
- inhibition at 0.1 µM (CXCR4): 98.4%
- EC50 [1]: 3 nM
